The source of these data is ChEMBL document CHEMBL1134842, “Mononuclear platinum(II) complex with 2-phenylpyridine ligands showing high cytotoxicity against mouse sarcoma 180 cells acquiring high cisplatin resistance” (J Med Chem, 2001).

Experiment [1] can be described thus: Cytotoxicity against S-180cisR cells by MTT assay. The class given is functional, cell-based, Mus musculus. In general terms: Formazan colour is commonly taken as a measure of viable cells.
A short description of experiment [2]: Cytotoxicity against S-180 cells by MTT assay. The class given is functional, cell-based, Mus musculus.

One may read the IC50 as the point on the concentration scale where inhibition reaches its midpoint. Low readings indicate greater potency in that assay, high ones weaker potency in that assay. In turn, cis-[PtCl2(NH3)(3-CH3C5H4N)] showed an IC50 in experiment [1] of 49 µM.
In the case of cis-[PtCl2(NH3)(3-CH3CH2C5H4N)], in experiment [1], the half-inhibitory concentration (IC50) stood at 49 µM.
Same read-out and setting: the figure for cis-[PtCl2(NH3)(2-C6H5CH2C5H4N)] is 49 µM.
On to cis-[PtCl(2-C6H4C5H4)(2-C6H5C5H4N)], for which the values for the concentration for half-maximal inhibition (IC50) in experiment [1] and in experiment [2] were 8.6 µM and 3.1 µM, respectively.
Consider cis-[PtCl2(NH3)(2-CH3C5H4N)], for which the IC50 in experiment [1] was determined as 49 µM.
Regarding CISPLATIN, the 50% inhibitory concentration (IC50) in experiment [1] came out at 59 µM; in experiment [2], 2.4 µM.
